The values that follow come from patent US8039458B2, “HIV integrase inhibitors” (priority 2005, dated 2011).

For one experiment, the target named is T1, HIV-Integrase (Human immunodeficiency virus type 1 group M subtype B, UniProt P12497).
T1 construct: Recombinant integrase (0.26 ng) was incubated with the beads
As to the kind of experiment: HIV-Integrase binding assay (competition with [3H]-compound I, SPA). To be noted: competitive binding vs [3H]-compound I to purified integrase; Ki by Cheng and Prusoff; read-out: in vitro binding. As for the experimental part: HIV-Integrase Inhibition Activity. To evaluate in-vitro activity against HIV-integrase, 5 pmole of biotin labeled substrate DNA was bound to 100 μg of Streptavidin coated PVT SPA beads (Amersham Pharmacia Biotech). Recombinant integrase (0.26 ng) was incubated with the beads for 90 min at 37° C. Unbound enzyme was removed by washing the complex followed by addition of inhibitors and 0.1 fmol of P33 labeled target DNA. The reaction was stopped by adding EDTA to a final concentration of 10 mM. Samples were counted in TopCountNXT (Packard) and the CPM was used as a measure of integration. The reaction condition was as described in A. Engelman and R. Craigie, J. Virol. 69, 5908-5911 (1995). The sequences of substrate and target DNA were described in Nucleic Acid Research 22,1121-1122 (1994).
HIV-Integrase binding assay. In this assay competitive binding experiments with test compounds and a radiolabeled integrase inhibitor (compound I) are performed against purified integrase. SPA bead/DNA/enzyme complexes were prepared as for the integrase inhibition assay except, to each well, 0.69 μl of integrase enzyme ([…]) was used per 2 μl of LTR DNA-attached scintillation proximity beads (stock 50 mg/ml). Binding reactions were carried out in 96-well white polystyrene assay plates (Corning, #3600). The following was added sequentially to each well: 20 μl of water or 20 μl of human serum (Cellgro Cat# 35-060-CL), 5 μl of serially diluted compound (in 50% DMSO/50% integrase SPA buffer), 5 μl of [^3H]-compound I (6,000 cpm/μl in SPA buffer) and 20 μl of bead/DNA/enzyme complex. The plates were shaken for 2 hours and then allowed to sit at room temperature without shaking overnight. The [^3H]-compound I binding was measured using a Topcount scintillation counter. Cheng and Prusoff equations were used to convert the inhibition of compound 1 binding into the corresponding Ki value. Activity equal to A refers to a compound having Ki=0.001 to 0.003 μM while B and C denote compounds having Ki=0.003 to 0.05 μM and Ki≧0.050 μM respectively.

In experiment [1] the test system is recombinant NL-Rluc virus. In words: Inhibition of HIV replication (NL-RLuc virus, Renilla luciferase). Format: cell-based. As to conditions: Human immunodeficiency virus 1, read-out: antiviral actitively.

Regarding `CC1(C)COCCn2c1nc(C(=O)NCc1ccc(F)cc1)c(O)c2=O` [Example 1, N-((4-Fluorophenyl)methyl)-3-hydroxy-10,10-dimethyl-4-oxo-6,7,9,10-tetrahydro-4H-pyrimido[1,2-d][1,4]oxazepine-2-carboxamide], the Ki at HIV-Integrase was in the range of 3 to 50 nM. Also, the EC50 in experiment [1] fell in the range of 10 to 50 nM.
The matching figures for `CC1(C)COCCn2c1nc(C(=O)NCc1ccc(F)cc1-n1cncn1)c(O)c2=O` [Example 2, N-((4-Fluoro-2-(1H-1,2,4-triazol-1-yl)phenyl)methyl)-3-hydroxy-10,10-dimethyl-4-oxo-6,7,9,10-tetrahydro-4H-pyrimido[1,2-d][1,4]oxazepine-2-carboxamide]: 3 to 50 nM and 1 to 10 nM.
The like results for `CC1(C)COCCn2c1nc(C(=O)NCc1ccc(F)cc1S(C)(=O)=O)c(O)c2=O` [Example 3, N-((4-Fluoro-2-(methylsulfonyl)phenyl)methyl)-3-hydroxy-10,10-dimethyl-4-oxo-6,7,9,10-tetrahydro-4H-pyrimido[1,2-d][1,4]oxazepine-2-carboxamide] were, in that order, 3 to 50 nM and 1 to 10 nM.
For `Cc1ncnn1-c1cc(F)ccc1CNC(=O)c1nc2n(c(=O)c1O)CCOCC2(C)C` [Example 4, N-((4-Fluoro-2-(5-methyl-1H-1,2,4-triazol-1-yl)phenyl)methyl)-3-hydroxy-10,10-dimethyl-4-oxo-6,7,9,10-tetrahydro-4H-pyrimido[1,2-d][1,4]oxazepine-2-carboxamide], the Ki at HIV-Integrase was in the range of 3 to 50 nM. For the same compound, in experiment [1], the EC50 lay in the range of 1 to 10 nM.
In the case of `Cc1nc(C)n(-c2cc(F)ccc2CNC(=O)c2nc3n(c(=O)c2O)CCOCC3(C)C)n1` [Example 5, N-((2-(3,5-dimethyl-1H-1,2,4-triazol-1-yl)-4-fluorophenyl)methyl)-3-hydroxy-10,10-dimethyl-4-oxo-6,7,9,10-tetrahydro-4H-pyrimido[1,2-d][1,4]oxazepine-2-carboxamide], the Ki on HIV-Integrase lay in the range of 3 to 50 nM. The EC50 in experiment [1] lay in the range of 10 to 50 nM.
The matching figures for `Cc1ncn(-c2cc(F)ccc2CNC(=O)c2nc3n(c(=O)c2O)CCOCC3(C)C)n1` [Example 6, N-((4-fluoro-2-(3-methyl-1H-1,2,4-triazol-1-yl)phenyl)methyl)-3-hydroxy-10,10-dimethyl-4-oxo-6,7,9,10-tetrahydro-4H-pyrimido[1,2-d][1,4]oxazepine-2-carboxamide]: 3 to 50 nM and 1 to 10 nM.
For `O=C(NCc1ccc(F)cc1)c1nc2n(c(=O)c1O)CCOCC21CCC1` [Example 7, N-((4-fluorophenyl)methyl)-3′-hydroxy-4′-oxo-6′,7′-dihydro-4′H-spiro[cyclobutane-1,10′-pyrimido[1,2-d][1,4]oxazepine]-2′-carboxamide], the Ki on HIV-Integrase was 1 to 3 nM. The EC50 in experiment [1] was 10 to 50 nM.
The matching figures for `CS(=O)(=O)c1cc(F)ccc1CNC(=O)c1nc2n(c(=O)c1O)CCOCC21CCC1` [Example 8, N-((4-fluoro-2-(methylsulfonyl)phenyl)methyl)-3′-hydroxy-4′-oxo-6′,7′-dihydro-4′H-spiro[cyclobutane-1,10′-pyrimido[1,2-d][1,4]oxazepine]-2′-carboxamide]: 1 to 3 nM and 1 to 10 nM.
The like results for `O=C(NCc1ccc(F)cc1-n1cncn1)c1nc2n(c(=O)c1O)CCOCC21CCC1` [Example 9, N-((4-fluoro-2-(1H-1,2,4-triazol-1-yl)phenyl)methyl)-3′-hydroxy-4′-oxo-6′,7′-dihydro-4′H-spiro[cyclobutane-1,10′-pyrimido[1,2-d][1,4]oxazepine]-2′-carboxamide] were, in that order, 1 to 3 nM and 1 to 10 nM.
The matching figures for `Cc1ncnn1-c1cc(F)ccc1CNC(=O)c1nc2n(c(=O)c1O)CCOCC21CCC1` [Example 10, N-((4-fluoro-2-(5-methyl-1H-1,2,4-triazol-1-yl)phenyl)methyl)-3′-hydroxy-4′-oxo-6′,7′-dihydro-4′H-spiro[cyclobutane-1,10′-pyrimido[1,2-d][1,4]oxazepine]-2′-carboxamide]: 1 to 3 nM and 1 to 10 nM.
For the compound `Cc1nc(C)n(-c2cc(F)ccc2CNC(=O)c2nc3n(c(=O)c2O)CCOCC32CCC2)n1` [Example 11, N-((2-(3,5-dimethyl-1H-1,2,4-triazol-1-yl)-4-fluorophenyl)methyl)-3′-hydroxy-4′-oxo-6′,7′-dihydro-4′H-spiro[cyclobutane-1,10′-pyrimido[1,2-d][1,4]oxazepine]-2′-carboxamide], the Ki at HIV-Integrase is 3 to 50 nM. Also, the EC50 in experiment [1] lay within 1 to 10 nM.
`O=C(NCc1ccc(F)cc1)c1nc2n(c(=O)c1O)CCOCC21CCCC1` [Example 12, N-((4-fluorophenyl)methyl)-3′-hydroxy-4′-oxo-6′,7′-dihydro-4′H-spiro[cyclopentane-1,10′-pyrimido[1,2-d][1,4]oxazepine]-2′-carboxamide]: the Ki at HIV-Integrase fell in the range of 1 to 3 nM. For the same compound, in experiment [1], the EC50 fell in the range of 1 to 10 nM.
As for `CS(=O)(=O)c1cc(F)ccc1CNC(=O)c1nc2n(c(=O)c1O)CCOCC21CCCC1` [Example 13, N-((4-fluoro-2-(methylsulfonyl)phenyl)methyl)-3′-hydroxy-4′-oxo-6′,7′-dihydro-4′H-spiro[cyclopentane-1,10′-pyrimido[1,2-d][1,4]oxazepine]-2′-carboxamide], the Ki at HIV-Integrase is 1 to 3 nM. The EC50 in experiment [1] was 1 to 10 nM.
The matching figures for `O=C(NCc1ccc(F)cc1-n1cncn1)c1nc2n(c(=O)c1O)CCOCC21CCCC1` [Example 14, N-((4-fluoro-2-(1H-1,2,4-triazol-1-yl)phenyl)methyl)-3′-hydroxy-4′-oxo-6′,7′-dihydro-4′H-spiro[cyclopentane-1,10′-pyrimido[1,2-d][1,4]oxazepine]-2′-carboxamide]: 1 to 3 nM and 1 to 10 nM.
With `Cn1nnc(-c2cc(F)ccc2CNC(=O)c2nc3n(c(=O)c2O)CCOCC32CCCC2)n1` [Example 15, N-((4-fluoro-2-(2-methyl-2H-tetrazol-5-yl)phenyl)methyl)-3′-hydroxy-4′-oxo-6′,7′-dihydro-4′H-spiro[cyclopentane-1,10′-pyrimido[1,2-d][1,4]oxazepine]-2′-carboxamide], the Ki on HIV-Integrase was in the range of 1 to 3 nM. Also, the EC50 in experiment [1] was in the range of 1 to 10 nM.
The like results for `CC1(C)COCCn2c1nc(C(=O)NCc1ccc(F)cc1N1CCCC1=O)c(O)c2=O` [Example 16, N-((4-fluoro-2-(2-oxo-1-pyrrolidinyl)phenyl)methyl)-3-hydroxy-10,10-dimethyl-4-oxo-6,7,9,10-tetrahydro-4H-pyrimido[1,2-d][1,4]oxazepine-2-carboxamide] were, in that order, 1 to 3 nM and 1 to 10 nM.
The like results for `COP(=O)(OC)c1cc(F)ccc1CNC(=O)c1nc2n(c(=O)c1O)CCOCC2(C)C` [Example 17, Dimethyl (5-fluoro-2-((((3-hydroxy-10,10-dimethyl-4-oxo-6,7,9,10-tetrahydro-4H-pyrimido[1,2-d][1,4]oxazepin-2-yl)carbonyl)amino)methyl)phenyl)-phosphonate] were, in that order, 3 to 50 nM and 1 to 10 nM.
The matching figures for `Cc1nnn(-c2cc(F)ccc2CNC(=O)c2nc3n(c(=O)c2O)CCOCC3(C)C)c1C` [Example 18, N-(2-(4,5-Dimethyl-1H-1,2,3-triazol-1-yl)-4-fluorobenzyl)-3-hydroxy-10,10-dimethyl-4-oxo-6,7,9,10-tetrahydro-4H-pyrimido[1,2-d][1,4]oxazepine-2-carboxamide]: 3 to 50 nM and 1 to 10 nM.
`Cc1cnnn1-c1cc(F)ccc1CNC(=O)c1nc2n(c(=O)c1O)CCOCC2(C)C` [Example 19, N-(4-fluoro-2-(5-methyl-1H-1,2,3-triazol-1-yl)benzyl)-3-hydroxy-10,10-dimethyl-4-oxo-6,7,9,10-tetrahydro-4H-pyrimido[1,2-d][1,4]oxazepine-2-carboxamide]: the Ki on HIV-Integrase lay in the range of 3 to 50 nM. Besides, in experiment [1], the EC50 was in the range of 1 to 10 nM.
The matching figures for `CC1(C)COCCn2c1nc(C(=O)NCc1ccc(F)cc1-n1ncnc1-c1ccccc1)c(O)c2=O` [Example 20, N-((4-fluoro-2-(5-phenyl-1H-1,2,4-triazol-1-yl)phenyl)methyl)-3-hydroxy-10,10-dimethyl-4-oxo-6,7,9,10-tetrahydro-4H-pyrimido[1,2-d][1,4]oxazepine-2-carboxamide]: not below 50 nM and more than 50 nM.
Turning to `Cc1ncn(-c2cc(F)ccc2CNC(=O)c2nc3n(c(=O)c2O)CCOCC32CCCC2)n1` [Example 21, N-((4-fluoro-2-(3-methyl-1H-1,2,4-triazol-1-yl)phenyl)methyl)-3′-hydroxy-4′-oxo-6′,7′-dihydro-4′H-spiro[cyclopentane-1,10′-pyrimido[1,2-d][1,4]oxazepine]-2′-carboxamide], the Ki at HIV-Integrase fell in the range of 1 to 3 nM. For the same compound, the EC50 in experiment [1] fell in the range of 1 to 10 nM.
